In ChEMBL document CHEMBL2010722, “Structure-activity relationship study of beta-carboline derivatives as haspin kinase inhibitors” (Bioorg Med Chem Lett, 2012):

How the values were obtained:
[1] = target: Ribosomal protein S6 kinase alpha-3 (Homo sapiens) (UniProt P51812); assay: Inhibition of RSK2 N-terminal at 10 uM
[2] = Inhibition of CDK4/[…] at 10 uM
[3] = target: SRSF protein kinase 2 (Homo sapiens) (UniProt P78362); assay: Inhibition of SRPK2 at 10 uM
[4] = target: Tyrosine-protein kinase ABL1 (Homo sapiens) (UniProt P00519); assay: Inhibition of ABL at 10 uM
[5] = target: CDK9/cyclin T1 (Homo sapiens) (UniProt O60563+P50750); assay: Inhibition of CDK9-CycT1 at 10 uM; format: protein-complex assay
[6] = target: Mitogen-activated protein kinase 14 (Homo sapiens) (UniProt Q16539); assay: Inhibition of p38alpha at 10 uM
[7] = target: Tyrosine-protein kinase Yes (Homo sapiens) (UniProt P07947); assay: Inhibition of YES at 10 uM
[8] = target: NUAK family SNF1-like kinase 1 (Homo sapiens) (UniProt O60285); assay: Inhibition of NuaK1 at 10 uM
[9] = target: Phosphorylase b kinase gamma catalytic chain, skeletal muscle/heart isoform (Homo sapiens) (UniProt Q16816); assay: Inhibition of PHKG1 at 10 uM
Phosphorylase b kinase gamma catalytic chain, skeletal muscle/heart isoform (Homo sapiens), sequence (Q16816 whole entry, looked up, canonical isoform): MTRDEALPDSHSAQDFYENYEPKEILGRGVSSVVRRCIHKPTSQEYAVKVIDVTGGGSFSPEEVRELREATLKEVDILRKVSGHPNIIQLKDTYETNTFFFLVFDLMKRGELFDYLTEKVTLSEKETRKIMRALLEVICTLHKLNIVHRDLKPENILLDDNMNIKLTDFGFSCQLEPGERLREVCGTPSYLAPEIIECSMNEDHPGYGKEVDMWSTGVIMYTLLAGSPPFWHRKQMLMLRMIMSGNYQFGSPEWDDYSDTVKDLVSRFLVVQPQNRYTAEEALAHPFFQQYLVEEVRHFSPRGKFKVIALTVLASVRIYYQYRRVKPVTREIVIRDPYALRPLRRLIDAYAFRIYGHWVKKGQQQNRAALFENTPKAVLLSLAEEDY

[10] = target: Casein kinase I isoform alpha (Homo sapiens) (UniProt P48729); assay: Inhibition of CK1a at 10 uM
[11] = target: NPM/ALK (Nucleophosmin/ALK tyrosine kinase receptor) (Homo sapiens) (UniProt Q9UM73+P06748); assay: Inhibition of NPM1-ALK at 10 uM; format: protein-complex assay
[12] = target: Insulin-like growth factor 1 receptor (Homo sapiens) (UniProt P08069); assay: Inhibition of IGF1R at 10 uM
Insulin-like growth factor 1 receptor (Homo sapiens), sequence (P08069 31-736 limits assumed): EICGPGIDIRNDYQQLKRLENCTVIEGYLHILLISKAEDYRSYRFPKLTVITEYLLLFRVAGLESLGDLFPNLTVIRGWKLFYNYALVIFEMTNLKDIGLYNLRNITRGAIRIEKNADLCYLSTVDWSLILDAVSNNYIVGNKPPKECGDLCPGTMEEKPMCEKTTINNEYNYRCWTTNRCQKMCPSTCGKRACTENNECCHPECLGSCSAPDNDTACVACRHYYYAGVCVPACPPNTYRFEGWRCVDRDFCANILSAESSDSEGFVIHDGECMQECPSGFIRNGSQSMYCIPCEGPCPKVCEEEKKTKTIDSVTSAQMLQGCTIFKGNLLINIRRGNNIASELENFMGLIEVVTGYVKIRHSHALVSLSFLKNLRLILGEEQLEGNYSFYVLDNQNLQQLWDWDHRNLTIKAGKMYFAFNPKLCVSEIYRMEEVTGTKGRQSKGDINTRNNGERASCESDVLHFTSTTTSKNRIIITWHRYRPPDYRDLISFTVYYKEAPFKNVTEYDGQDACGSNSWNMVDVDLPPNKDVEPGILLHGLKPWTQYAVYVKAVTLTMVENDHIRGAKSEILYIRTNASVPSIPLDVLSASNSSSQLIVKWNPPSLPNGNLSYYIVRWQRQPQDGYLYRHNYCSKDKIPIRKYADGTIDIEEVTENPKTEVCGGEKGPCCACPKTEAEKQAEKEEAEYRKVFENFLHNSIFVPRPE
Insulin-like growth factor 1 receptor (Homo sapiens), sequence (P08069 741-1367 limits assumed): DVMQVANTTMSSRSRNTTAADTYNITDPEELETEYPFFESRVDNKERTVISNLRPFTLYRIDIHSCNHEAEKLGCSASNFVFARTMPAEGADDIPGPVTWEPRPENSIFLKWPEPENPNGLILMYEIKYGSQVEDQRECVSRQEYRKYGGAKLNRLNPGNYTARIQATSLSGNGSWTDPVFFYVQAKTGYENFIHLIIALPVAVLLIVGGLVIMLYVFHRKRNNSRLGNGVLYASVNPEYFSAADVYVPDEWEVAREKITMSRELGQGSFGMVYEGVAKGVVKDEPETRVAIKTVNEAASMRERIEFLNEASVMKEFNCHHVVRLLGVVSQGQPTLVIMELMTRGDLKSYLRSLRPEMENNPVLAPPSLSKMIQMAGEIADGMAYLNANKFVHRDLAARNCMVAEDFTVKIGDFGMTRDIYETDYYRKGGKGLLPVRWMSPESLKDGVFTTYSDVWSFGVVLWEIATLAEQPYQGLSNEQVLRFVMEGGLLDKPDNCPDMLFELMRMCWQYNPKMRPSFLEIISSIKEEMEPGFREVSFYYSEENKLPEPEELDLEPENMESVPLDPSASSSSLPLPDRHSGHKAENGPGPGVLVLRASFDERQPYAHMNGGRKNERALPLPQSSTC

[13] = target: Receptor tyrosine-protein kinase erbB-4 (Homo sapiens) (UniProt Q15303); assay: Inhibition of HER4 at 10 uM
[14] = target: Fibroblast growth factor receptor 3 (Homo sapiens) (UniProt P22607); assay: Inhibition of FGFR3 at 10 uM
[15] = test system: Mast/stem cell growth factor receptor Kit (Homo sapiens), P10721 [D816V]; assay: Inhibition of KIT D816V mutant at 10 uM
[16] = target: Serine/threonine-protein kinase 10 (Homo sapiens) (UniProt O94804); assay: Inhibition of LOK at 10 uM
[17] = target: High affinity nerve growth factor receptor (Homo sapiens) (UniProt P04629); assay: Inhibition of TRKA at 10 uM
[18] = target: Testis-specific serine/threonine-protein kinase 2 (Homo sapiens) (UniProt Q96PF2); assay: Inhibition of TSSK2 at 10 uM
[19] = target: Casein kinase I isoform gamma-3 (Homo sapiens) (UniProt Q9Y6M4); assay: Inhibition of CK1g3 at 10 uM
[20] = target: Dual specificity tyrosine-phosphorylation-regulated kinase 1A (Homo sapiens) (UniProt Q13627); conditions: 10 uM
[21] = target: Homeodomain-interacting protein kinase 3 (Homo sapiens) (UniProt Q9H422); assay: Inhibition of HIPK3 at 10 uM
[22] = target: Ribosomal protein S6 kinase alpha-1 (Homo sapiens) (UniProt Q15418); assay: Inhibition of RSK1 N-terminal at 10 uM
Ribosomal protein S6 kinase alpha-1 (Homo sapiens), sequence (Q15418 whole entry): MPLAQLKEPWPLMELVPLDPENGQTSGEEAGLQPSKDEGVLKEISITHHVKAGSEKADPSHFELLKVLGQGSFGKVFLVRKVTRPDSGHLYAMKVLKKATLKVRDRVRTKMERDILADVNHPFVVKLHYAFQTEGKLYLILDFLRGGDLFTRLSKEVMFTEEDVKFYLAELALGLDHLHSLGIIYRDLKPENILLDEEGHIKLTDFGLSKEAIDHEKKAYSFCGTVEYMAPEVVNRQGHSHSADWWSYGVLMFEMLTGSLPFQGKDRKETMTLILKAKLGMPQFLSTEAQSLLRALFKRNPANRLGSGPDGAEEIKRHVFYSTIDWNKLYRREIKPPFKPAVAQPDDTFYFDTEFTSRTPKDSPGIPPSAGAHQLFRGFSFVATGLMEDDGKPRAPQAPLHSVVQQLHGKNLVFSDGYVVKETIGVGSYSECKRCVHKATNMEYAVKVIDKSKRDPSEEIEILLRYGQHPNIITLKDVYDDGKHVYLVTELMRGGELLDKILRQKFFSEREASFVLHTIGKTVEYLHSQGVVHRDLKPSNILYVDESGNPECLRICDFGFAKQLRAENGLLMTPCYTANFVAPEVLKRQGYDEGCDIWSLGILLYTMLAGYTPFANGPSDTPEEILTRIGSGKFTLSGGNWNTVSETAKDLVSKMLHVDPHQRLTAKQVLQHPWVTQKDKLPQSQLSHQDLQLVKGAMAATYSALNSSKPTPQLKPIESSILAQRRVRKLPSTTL

[23] = target: Glycogen synthase kinase-3 alpha (Homo sapiens) (UniProt P49840); assay: Inhibition of GSK3a at 10 uM
Glycogen synthase kinase-3 alpha (Homo sapiens), sequence (P49840 2-483 limits assumed): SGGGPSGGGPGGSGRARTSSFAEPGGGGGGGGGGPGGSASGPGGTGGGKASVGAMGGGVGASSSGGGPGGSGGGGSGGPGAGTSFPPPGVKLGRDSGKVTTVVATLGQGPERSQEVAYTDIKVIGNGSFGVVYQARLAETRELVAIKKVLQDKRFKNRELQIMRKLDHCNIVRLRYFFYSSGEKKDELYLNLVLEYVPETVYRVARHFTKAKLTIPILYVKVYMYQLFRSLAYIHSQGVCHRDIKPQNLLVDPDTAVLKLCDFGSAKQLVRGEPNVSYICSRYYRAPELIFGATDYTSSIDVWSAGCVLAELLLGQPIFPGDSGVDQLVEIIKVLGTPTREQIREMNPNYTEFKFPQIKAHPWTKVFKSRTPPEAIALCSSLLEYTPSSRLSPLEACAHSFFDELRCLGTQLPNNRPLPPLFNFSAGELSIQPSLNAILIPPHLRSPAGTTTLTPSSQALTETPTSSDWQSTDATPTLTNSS

[24] = target: Angiopoietin-1 receptor (Homo sapiens) (UniProt Q02763); assay: Inhibition of TIE2 at 10 uM
Angiopoietin-1 receptor (Homo sapiens), sequence (Q02763 whole entry): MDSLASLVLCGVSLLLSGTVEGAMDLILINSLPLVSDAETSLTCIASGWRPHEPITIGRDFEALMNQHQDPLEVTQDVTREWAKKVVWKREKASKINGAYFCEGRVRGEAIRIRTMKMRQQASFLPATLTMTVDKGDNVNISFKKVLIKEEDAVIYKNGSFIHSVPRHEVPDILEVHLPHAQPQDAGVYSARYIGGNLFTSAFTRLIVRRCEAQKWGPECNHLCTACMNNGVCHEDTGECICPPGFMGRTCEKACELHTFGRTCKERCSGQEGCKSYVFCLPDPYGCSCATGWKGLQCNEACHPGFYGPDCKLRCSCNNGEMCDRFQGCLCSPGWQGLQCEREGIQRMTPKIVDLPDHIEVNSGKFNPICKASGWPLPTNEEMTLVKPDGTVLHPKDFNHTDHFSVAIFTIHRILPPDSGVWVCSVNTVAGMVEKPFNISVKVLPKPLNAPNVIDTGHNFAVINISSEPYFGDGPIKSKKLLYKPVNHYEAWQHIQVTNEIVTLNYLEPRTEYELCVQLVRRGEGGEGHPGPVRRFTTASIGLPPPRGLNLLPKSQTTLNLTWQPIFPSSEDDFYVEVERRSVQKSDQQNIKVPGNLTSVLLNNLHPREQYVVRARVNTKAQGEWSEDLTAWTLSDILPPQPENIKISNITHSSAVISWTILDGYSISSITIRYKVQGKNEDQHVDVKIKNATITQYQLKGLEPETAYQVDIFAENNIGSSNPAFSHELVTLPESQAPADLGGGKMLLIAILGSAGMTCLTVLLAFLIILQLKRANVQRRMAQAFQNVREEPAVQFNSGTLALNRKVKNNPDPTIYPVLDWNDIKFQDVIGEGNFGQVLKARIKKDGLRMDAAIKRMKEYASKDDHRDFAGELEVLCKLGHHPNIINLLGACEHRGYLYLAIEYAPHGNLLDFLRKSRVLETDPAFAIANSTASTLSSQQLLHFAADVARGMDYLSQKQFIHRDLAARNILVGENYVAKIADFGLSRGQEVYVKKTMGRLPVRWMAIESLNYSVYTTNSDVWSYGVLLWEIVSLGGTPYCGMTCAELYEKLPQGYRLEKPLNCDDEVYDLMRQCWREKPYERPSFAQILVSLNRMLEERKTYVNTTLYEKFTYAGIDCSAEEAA

[25] = target: Tyrosine-protein kinase ZAP-70 (Homo sapiens) (UniProt P43403); assay: Inhibition of ZAP70 at 10 uM
[26] = target: Ribosomal protein S6 kinase beta-2 (Homo sapiens) (UniProt Q9UBS0); assay: Inhibition of p70S6Kb at 10 uM
[27] = target: Mitogen-activated protein kinase 3 (Homo sapiens) (UniProt P27361); assay: Inhibition of Erk1 at 10 uM
[28] = target: Mitogen-activated protein kinase kinase kinase 11 (Homo sapiens) (UniProt Q16584); assay: Inhibition of MLK3 at 10 uM
[29] = test system: Fibroblast growth factor receptor 3 (Homo sapiens), P22607 [K650E]; assay: Inhibition of FGFR3 K650E mutant at 10 uM
[30] = target: Fibroblast growth factor receptor 4 (Homo sapiens) (UniProt P22455); assay: Inhibition of FGFR4 at 10 uM
[31] = target: Testis-specific serine/threonine-protein kinase 1 (Homo sapiens) (UniProt Q9BXA7); assay: Inhibition of TSSK1 at 10 uM
[32] = target: Homeodomain-interacting protein kinase 4 (Homo sapiens) (UniProt Q8NE63); assay: Inhibition of HIPK4 at 10 uM
[33] = target: Interferon-induced, double-stranded RNA-activated protein kinase (Homo sapiens) (UniProt P19525); assay: Inhibition of PKR at 10 uM
[34] = target: SRSF protein kinase 3 (Homo sapiens) (UniProt Q9UPE1); assay: Inhibition of MSSK1 (SRPK3) at 10 uM
[35] = target: Epithelial discoidin domain-containing receptor 1 (Homo sapiens) (UniProt Q08345); assay: Inhibition of DDR1 at 10 uM
Epithelial discoidin domain-containing receptor 1 (Homo sapiens), sequence (Q08345 whole entry, the tested form may be a part): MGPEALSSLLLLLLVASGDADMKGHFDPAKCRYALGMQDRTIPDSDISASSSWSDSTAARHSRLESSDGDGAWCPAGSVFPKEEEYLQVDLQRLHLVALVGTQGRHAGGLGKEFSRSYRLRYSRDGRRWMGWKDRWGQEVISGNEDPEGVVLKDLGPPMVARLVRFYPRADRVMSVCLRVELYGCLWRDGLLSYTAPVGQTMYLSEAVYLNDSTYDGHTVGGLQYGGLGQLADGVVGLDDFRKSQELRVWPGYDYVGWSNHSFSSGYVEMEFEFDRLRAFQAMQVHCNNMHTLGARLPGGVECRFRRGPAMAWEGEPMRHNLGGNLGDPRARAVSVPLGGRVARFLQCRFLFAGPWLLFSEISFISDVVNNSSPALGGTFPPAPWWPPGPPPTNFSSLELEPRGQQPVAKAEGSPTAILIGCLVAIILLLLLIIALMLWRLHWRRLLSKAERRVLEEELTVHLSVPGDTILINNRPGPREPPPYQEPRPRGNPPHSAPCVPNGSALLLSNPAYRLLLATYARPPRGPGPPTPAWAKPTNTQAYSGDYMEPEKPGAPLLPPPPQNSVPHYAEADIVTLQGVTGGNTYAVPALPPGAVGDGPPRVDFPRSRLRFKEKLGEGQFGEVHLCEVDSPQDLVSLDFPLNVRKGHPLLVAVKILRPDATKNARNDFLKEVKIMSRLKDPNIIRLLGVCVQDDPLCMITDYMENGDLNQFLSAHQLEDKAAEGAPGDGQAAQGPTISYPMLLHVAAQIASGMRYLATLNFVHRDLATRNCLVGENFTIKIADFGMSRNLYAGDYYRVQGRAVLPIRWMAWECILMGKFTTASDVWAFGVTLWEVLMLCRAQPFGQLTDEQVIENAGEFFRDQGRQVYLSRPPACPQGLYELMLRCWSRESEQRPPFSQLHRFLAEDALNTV

[36] = target: Sphingosine kinase 2 (Homo sapiens) (UniProt Q9NRA0); assay: Inhibition of SPHK2 at 10 uM
[37] = target: Tyrosine-protein kinase Fgr (Homo sapiens) (UniProt P09769); assay: Inhibition of FGR at 10 uM
[38] = target: Epidermal growth factor receptor (Homo sapiens) (UniProt P00533); assay: Inhibition of EGFR at 10 uM
[39] = Inhibition of p70S6K at 10 uM
[40] = target: Ephrin type-A receptor 4 (Homo sapiens) (UniProt P54764); assay: Inhibition of EPHA4 at 10 uM
[41] = target: Ephrin type-B receptor 3 (Homo sapiens) (UniProt P54753); assay: Inhibition of EPHB3 at 10 uM
[42] = target: Aurora kinase A (Homo sapiens) (UniProt O14965); assay: Inhibition of AurA at 10 uM
[43] = test system: Mast/stem cell growth factor receptor Kit (Homo sapiens), P10721 [V654A]; assay: Inhibition of KIT V654A mutant at 10 uM
[44] = target: Phosphorylase b kinase gamma catalytic chain, liver/testis isoform (Homo sapiens) (UniProt P15735); assay: Inhibition of PHKG2 at 10 uM
[45] = target: cAMP-dependent protein kinase catalytic subunit PRKX (Homo sapiens) (UniProt P51817); assay: Inhibition of PRKX at 10 uM
[46] = target: Inhibitor of nuclear factor kappa-B kinase subunit alpha (Homo sapiens) (UniProt O15111); assay: Inhibition of IKKa at 10 uM
[47] = target: Mitogen-activated protein kinase 9 (Homo sapiens) (UniProt P45984); assay: Inhibition of JNK2 at 10 uM

COc1ccc2c3ccnc(C(F)(F)F)c3n(CCCCN)c2c1
inhibition [1]: 28% | inhibition [2]: 27% | inhibition [3]: 0% | inhibition [4]: 3% | inhibition [5]: 79% | inhibition [6]: 1% | inhibition [7]: 6% | inhibition [8]: 30% | inhibition [9]: 49% | inhibition [10]: 73% | inhibition [11]: 4% | inhibition [12]: 0% | inhibition [13]: 25% | inhibition [14]: 1% | inhibition [15]: 32% | inhibition [16]: 20% | inhibition [17]: 8% | inhibition [18]: 5% | inhibition [19]: 53% | inhibition [20]: 100% | inhibition [21]: 49% | inhibition [22]: 27% | inhibition [23]: 48% | inhibition [24]: 0% | inhibition [25]: 3% | inhibition [26]: 75% | inhibition [27]: 2% | inhibition [28]: 3% | inhibition [29]: 3% | inhibition [30]: 6% | inhibition [31]: 43% | inhibition [32]: 28% | inhibition [33]: 6% | inhibition [34]: 7% | inhibition [35]: 8% | inhibition [36]: 6% | inhibition [37]: 11% | inhibition [38]: 13% | inhibition [39]: 76% | inhibition [40]: 0% | inhibition [41]: 0% | inhibition [42]: 0% | inhibition [43]: 5% | inhibition [44]: 26% | inhibition [45]: 14% | inhibition [46]: 7% | inhibition [47]: 8%
